{"source": "patent US20110100079A1", "about": "“METHOD FOR IMPARTING STRESS TOLERANCE TO PLANT” (priority 2007, published 2011)", "assay_type_in_all_cases": "in vivo", "key": {"“Momotaro” tomato [1]": {"tested_on": "“Momotaro” tomato", "experiment": "Example 1 salt stress tolerance imparting test (tomato, hydroponic, Otsuka 1/2A + NaCl)", "conditions": "2 weeks", "procedure": "(1) Salt stress-free test conditions: NaCl concentration (water potential by Nan): 0 ppm (0 MPa). Other cultivation conditions were as the same as the conditions of the drying stress test.\nWhen the leaves in the 2-leaf stage fully unfolded, the soil on the tomato roots was carefully washed away with running water, and a test was performed.\nMethod of Salt Stress Tolerance Imparting Test\nThe environmental conditions in a climatic chamber were controlled so as to have a temperature of 23° C., an illuminance by a fluorescent light of 5000 Lux, and a daily light-dark cycle of a 16-hour light period and an 8-hour dark period. […] A treatment solution containing a compound of Table 1 in a specific concentration (the remainder was water) was prepared and sprayed onto the leaves or applied to the underground portion. In addition, a control plot to which no NaCl was added, not imposing a salt stress (this is a control plot for plant body weight 2 for Formula (ii) and is a stress-free control plot) and a control plot to which NaCl was added in various concentrations, imposing a salt stress, and to which the treatment solution was not applied (this is a control plot for plant body weight 1 for Formula (ii) and is a control plot including a salt stress) were prepared as controls. Ten specimens were prepared for each of the test plot and the control plots, and a plant stress level and an extent of imparting plant stress tolerance were calculated according to Formulas (II) above using as a fresh plant body weight the average of the fresh plant body weights of each specimen 2 weeks after the beginning of the test."}, "“Momotaro” tomato [2]": {"tested_on": "“Momotaro” tomato", "experiment": "Example 2 temperature stress tolerance imparting test (tomato)", "conditions": "2 weeks"}, "tomato": {"tested_on": "tomato", "experiment": "Example 7 drying stress test (tomato), soil culture", "conditions": "23° C., underground portion, 100 ppm, 2 weeks", "procedure": "(§1) The environmental conditions in a climatic chamber were controlled so as to have a temperature of 23° C., an illuminance by a fluorescent light of 5000 Lux, and a daily light-dark cycle of a 16-hour light period and an 8-hour dark period. Tomatoes as prepared above were transplanted in size-3 (9 cm) pots. During the test period, the pF value was controlled by adding a suitable amount of tap water once a day so as to attain a specific drying stress value. A treatment solution containing a compound of Table 1 in a specific concentration (the remainder was water) was prepared and sprayed onto the leaves or applied to the underground portions. […] A comparative example was constructed to reflect the drying stress-free optimum cultivation conditions to investigate the plant energizing ability. […] Moreover, when the products of the present invention and the comparative products were compared, the stress tolerance imparting ability of the products of the present invention was higher in respective drying stress conditions."}, "potato": {"tested_on": "potato", "experiment": "Example 9 drying stress test (potato), soil culture", "conditions": "23° C., underground portion, 100 ppm, 2 weeks", "procedure": "as §1, with “period. Potatoes” for “period. Tomatoes”, “in size-5 (15” for “in size-3 (9”, “Table 5” for “Table 1”"}}, "data": [{"substance": "POE (20) sorbitan monooleic acid ester [Product of present invention 1]", "values": [{"measurement": "Extent of imparting plant stress tolerance", "setting": "“Momotaro” tomato [1]; NaCl 1500 ppm, leaf, 100 ppm", "result": 113, "unit": "%"}, {"measurement": "Extent of imparting plant stress tolerance", "setting": "“Momotaro” tomato [1]; NaCl 1500 ppm, underground portion, 100 ppm", "result": 124, "unit": "%"}, {"measurement": "Extent of imparting plant stress tolerance", "setting": "“Momotaro” tomato [1]; NaCl 3510 ppm, leaf, 1 ppm", "result": 111, "unit": "%"}, {"measurement": "Extent of imparting plant stress tolerance", "setting": "“Momotaro” tomato [1]; NaCl 3510 ppm, leaf, 10 ppm", "result": 112, "unit": "%"}, {"measurement": "Extent of imparting plant stress tolerance", "setting": "“Momotaro” tomato [1]; NaCl 3510 ppm, leaf, 100 ppm", "result": 113, "unit": "%"}, {"measurement": "Extent of imparting plant stress tolerance", "setting": "“Momotaro” tomato [1]; NaCl 3510 ppm, leaf, 1000 ppm", "result": 118, "unit": "%"}, {"measurement": "Extent of imparting plant stress tolerance", "setting": "“Momotaro” tomato [1]; NaCl 3510 ppm, underground portion, 100 ppm", "result": 130, "unit": "%"}, {"measurement": "Extent of imparting plant stress tolerance", "setting": "“Momotaro” tomato [1]; NaCl 5000 ppm, leaf, 100 ppm", "result": 125, "unit": "%"}, {"measurement": "Extent of imparting plant stress tolerance", "setting": "“Momotaro” tomato [1]; NaCl 5000 ppm, underground portion, 100 ppm", "result": 135, "unit": "%"}, {"measurement": "Extent of imparting plant stress tolerance", "setting": "“Momotaro” tomato [2]; 10° C., leaf, 100 ppm", "result": 125, "unit": "%"}, {"measurement": "Extent of imparting plant stress tolerance", "setting": "“Momotaro” tomato [2]; 10° C., underground portion, 100 ppm", "result": 140, "unit": "%"}, {"measurement": "Extent of imparting plant stress tolerance", "setting": "“Momotaro” tomato [2]; 15° C., leaf, 100 ppm", "result": 117, "unit": "%"}, {"measurement": "Extent of imparting plant stress tolerance", "setting": "“Momotaro” tomato [2]; 15° C., underground portion, 100 ppm", "result": 130, "unit": "%"}, {"measurement": "Extent of imparting plant stress tolerance", "setting": "“Momotaro” tomato [2]; 32° C., leaf, 1 ppm", "result": 113, "unit": "%"}, {"measurement": "Extent of imparting plant stress tolerance", "setting": "“Momotaro” tomato [2]; 32° C., leaf, 10 ppm", "result": 113, "unit": "%"}, {"measurement": "Extent of imparting plant stress tolerance", "setting": "“Momotaro” tomato [2]; 32° C., leaf, 100 ppm", "result": 114, "unit": "%"}, {"measurement": "Extent of imparting plant stress tolerance", "setting": "“Momotaro” tomato [2]; 32° C., leaf, 1000 ppm", "result": 119, "unit": "%"}, {"measurement": "Extent of imparting plant stress tolerance", "setting": "“Momotaro” tomato [2]; 32° C., underground portion, 100 ppm", "result": 127, "unit": "%"}, {"measurement": "Fresh weight, relative value (untreated plot = 100), Comparison 1", "setting": "tomato; stress-free: tomato soil culture, EC 1, pF 1.7, two-leaf stage", "result": 103}, {"measurement": "Fresh weight, relative value (untreated plot = 100), Test 1", "setting": "tomato; tomato soil culture, EC 1, pF 2.8, two-leaf stage", "result": 134}, {"measurement": "Fresh weight, relative value (untreated plot = 100), Test 4", "setting": "tomato; tomato soil culture, EC 1, pF 3.5, five-leaf stage", "result": 160}, {"measurement": "Fresh weight, relative value (untreated plot = 100), Test 2", "setting": "tomato; tomato soil culture, EC 1, pF 3.5, two-leaf stage", "result": 188}, {"measurement": "Fresh weight, relative value (untreated plot = 100), Test 3", "setting": "tomato; tomato soil culture, EC 1, pF 4.1, two-leaf stage", "result": 145}, {"measurement": "Fresh weight, relative value (untreated plot = 100), Test 1", "setting": "potato; potato soil culture, EC 1, pF 2.8, two-leaf stage", "result": 133}, {"measurement": "Fresh weight, relative value (untreated plot = 100), Test 4", "setting": "potato; potato soil culture, EC 1, pF 3.5, five-leaf stage", "result": 156}, {"measurement": "Fresh weight, relative value (untreated plot = 100), Test 2", "setting": "potato; potato soil culture, EC 1, pF 3.5, two-leaf stage", "result": 185}, {"measurement": "Fresh weight, relative value (untreated plot = 100), Test 3", "setting": "potato; potato soil culture, EC 1, pF 4.1, two-leaf stage", "result": 140}, {"measurement": "Fresh weight, relative value (untreated plot = 100), Comparison 1", "setting": "potato; stress-free: potato soil culture, EC 1, pF 1.7, two-leaf stage", "result": 102}]}]}
